In ChEMBL document CHEMBL5614374, “Novel carbazole-oxadiazole derivatives as anti-α-glucosidase and anti-α-amylase agents: Design, synthesis, molecular docking, and biological evaluation” (Eur J Med Chem, 2024):
The source made the active and inactive calls. No cut-off for these calls is given here.

What was measured:
[1] = Cytotoxicity against HEK293 cells assessed as cell viability at 60 uM incubated for 1 day by MTT assay relative to control; format: toxicity, cell-based; conditions: human, read-out: Activity
[2] = system: Mus musculus; test: Reduction in blood glucose concentration in male Kunming mouse at 20 mg/kg, IG preadministered for 40 mins followed by saccharose addition and measured after 30 mins by sucrose loading test; format: functional, organism-based; conditions: time 70.0 min
[3] = molecular target: T1, Alpha-amylase (Sus scrofa domesticus, UniProt Q7M328); test: Inhibition of hog pancreatic alpha-amylase using soluble starch as substrate assessed as inhibition constant of enzyme-substrate complex preincubated for 10 mins followed by substrate addition and measured after 15 mins by Lineweaver-Burk plot analysis
T1 sequence (Q7M328 whole entry): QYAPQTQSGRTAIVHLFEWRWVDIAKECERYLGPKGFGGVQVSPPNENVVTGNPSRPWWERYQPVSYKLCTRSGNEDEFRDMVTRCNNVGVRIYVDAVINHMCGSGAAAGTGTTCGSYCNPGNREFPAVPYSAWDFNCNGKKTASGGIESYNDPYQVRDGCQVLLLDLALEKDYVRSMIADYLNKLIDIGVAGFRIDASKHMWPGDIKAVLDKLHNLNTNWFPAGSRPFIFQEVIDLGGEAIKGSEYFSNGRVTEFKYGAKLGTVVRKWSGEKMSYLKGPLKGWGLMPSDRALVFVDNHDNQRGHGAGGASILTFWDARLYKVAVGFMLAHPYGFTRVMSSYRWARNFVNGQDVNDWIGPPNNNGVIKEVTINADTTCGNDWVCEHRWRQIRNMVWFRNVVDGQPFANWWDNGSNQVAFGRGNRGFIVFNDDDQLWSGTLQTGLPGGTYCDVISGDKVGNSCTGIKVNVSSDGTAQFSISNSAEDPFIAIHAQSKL

[4] = system: Mus musculus; test: Reduction in blood glucose concentration in male Kunming mouse assessed as decrease in AUC at 20 mg/kg, IG preadministered for 40 mins followed by saccharose addition and measured after 150 mins by sucrose loading test relative to control; format: functional; design: scale not given: the % may be the effect or the level left; conditions: time 190 min, 3.167 h
[5] = molecular target: T2, Alpha-glucosidase (Saccharomyces cerevisiae S288c, UniProt P53341+P38158+P07265); test: Inhibition of Saccharomyces cerevisiae alpha-glucosidase using p-nitrophenyl-alpha-D-glucopyranoside as substrate assessed as inhibition constant of free alpha-glucosidase incubated for 7 mins by spectrophotometer based Lineweaver-Burk plot analysis; format: protein assay
[6] = molecular target: Alpha amylase (Homo sapiens) (UniProt P0DUB6); test: Inhibition of alpha-amylase (unknown origin) assessed as increase in enzyme particle size at 50 uM incubated for 30 mins by AFM imaging analysis; format: protein assay
Sequence of Alpha amylase (Homo sapiens) (P0DUB6 whole entry, looked up): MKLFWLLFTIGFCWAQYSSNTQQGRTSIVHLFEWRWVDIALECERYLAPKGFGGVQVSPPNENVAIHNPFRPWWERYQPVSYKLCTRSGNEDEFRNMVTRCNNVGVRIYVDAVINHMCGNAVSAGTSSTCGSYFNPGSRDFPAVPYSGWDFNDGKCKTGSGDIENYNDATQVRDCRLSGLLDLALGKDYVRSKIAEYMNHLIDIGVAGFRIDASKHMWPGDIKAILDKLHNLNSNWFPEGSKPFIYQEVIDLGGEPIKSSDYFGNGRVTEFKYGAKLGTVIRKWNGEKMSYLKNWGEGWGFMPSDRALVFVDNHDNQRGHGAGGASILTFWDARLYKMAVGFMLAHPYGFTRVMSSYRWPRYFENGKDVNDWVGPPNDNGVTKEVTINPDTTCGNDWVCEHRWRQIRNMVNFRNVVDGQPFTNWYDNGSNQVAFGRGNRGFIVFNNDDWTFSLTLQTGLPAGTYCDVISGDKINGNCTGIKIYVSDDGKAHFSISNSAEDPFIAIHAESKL

[7] = molecular target: T1, Alpha-amylase; test: Inhibition of hog pancreatic alpha-amylase using soluble starch as substrate assessed as inhibition constant of free alpha-amylase preincubated for 10 mins followed by substrate addition and measured after 15 mins by Lineweaver-Burk plot analysis
[8] = molecular target: Alpha amylase (Homo sapiens) (UniProt P0DUB6); test: Inhibition of alpha-amylase (unknown origin) assessed as increase in enzyme particle thickness at 50 uM incubated for 30 mins by AFM imaging analysis; format: protein assay
[9] = molecular target: T1, Alpha-amylase; test: Inhibition of hog pancreatic alpha-amylase using soluble starch as substrate preincubated for 10 mins followed by substrate addition and measured after 15 mins by absorbance based analysis
[10] = Cytotoxicity against HEK293 cells incubated for 1 day by MTT assay; format: toxicity, cell-based; conditions: human
[11] = molecular target: T3, Alpha-amylase (Sus scrofa domesticus) (UniProt Q7M328); test: Mixed-type inhibition of hog pancreatic alpha-amylase using soluble starch as substrate upto 35 uM preincubated for 10 mins followed by substrate addition and measured after 15 mins by Lineweaver-Burk plot analysis; conditions: time 25.0 min
T3 sequence (whole entry): T1 sequence (Q7M328 whole entry)

[12] = molecular target: T2, Alpha-glucosidase; test: Inhibition of Saccharomyces cerevisiae alpha-glucosidase using p-nitrophenyl-alpha-D-glucopyranoside as substrate preincubated for 0.25 hrs followed by substrate addition and measured after 0.5 hrs by spectrophotometric analysis; format: protein assay

IC50 [9] [µM]	IC50 [12] [µM]	Compound	also measured
45.5	27.73	O=C(CSc1nnc(CCn2c3ccccc3c3ccccc32)o1)Nc1ccc(F)cc1	viability at 24 h, 60 µM [1]: 90.3%; Activity [2]: Active; Ki [3]: 63.3 µM; Activity [4]: 10.66%; Ki [5]: 22.04 µM; inhibition [6]: Active; Ki [7]: 45.1 µM; inhibition [8]: Active; IC50 at 1 day [10]: 181 µM; inhibition [11]: Active
64.6	85.95	COc1ccc(NC(=O)CSc2nnc(CCn3c4ccccc4c4ccccc43)o2)c([N+](=O)[O-])c1	–
> 200	> 300	Cc1ccccc1NC(=O)CSc1nnc(CCn2c3ccccc3c3ccccc32)o1	–
94.3	92.05	O=C(CSc1nnc(CCn2c3ccccc3c3ccccc32)o1)Nc1ccc(Cl)cc1Cl	–
89.7	37.96	O=C(CSc1nnc(CCn2c3ccccc3c3ccccc32)o1)Nc1ccc(Cl)cc1[N+](=O)[O-]	–
54.6	67.35	Cc1ccc(NC(=O)CSc2nnc(CCn3c4ccccc4c4ccccc43)o2)c([N+](=O)[O-])c1	–
81.2	66.89	Cc1cccc(NC(=O)CSc2nnc(CCn3c4ccccc4c4ccccc43)o2)c1	–
120	> 300	Cc1ccc(NC(=O)CSc2nnc(CCn3c4ccccc4c4ccccc43)o2)c(C)c1	–
